Reference: patent US10479780B2, “Aminopyrazole derivatives” (Chugai Seiyaku Kabushiki Kaisha, priority 2015, dated 2019)
Where two headings read alike, the source gives them in different places.

What was measured:
Format in all cases: biochemical
human Yes1 enzyme = molecular target: T1, human Yes1 enzyme (Homo sapiens, UniProt P07947); experiment: Yes1 enzyme inhibitory activity (time-resolved fluorometry, biotinylated peptide phosphorylation); details: read-out: YES_IC50
T1 construct: made in house
How it was run: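 Inhibition was expressed against a compound-free control to give IC50, using TR-FRET read-out (Eu-cryptate anti-pTyr antibody, streptavidin-XL665).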

human Src enzyme = molecular target: T2, human Src enzyme (Homo sapiens, UniProt P12931); experiment: Src enzyme inhibitory activity (time-resolved fluorometry, biotinylated peptide phosphorylation); details: read-out: SRC_IC50
T2 construct: purchased Carna Biosciences, Inc. 08-173
How it was run: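 Compounds were tested for blocking tyrosine phosphorylation of a biotinylated peptide substrate by recombinant human Src. Phosphorylated product was quantified by time-resolved fluorometry using europium cryptate and XL665 conjugates, and IC50 was calculated against the compound-free control.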

human Lck enzyme = molecular target: T3, human Lck enzyme (Homo sapiens, UniProt P06239); experiment: Lck enzyme inhibitory activity (time-resolved fluorometry, biotinylated peptide phosphorylation); details: read-out: LCK_IC50
T3 construct: purchased Carna Biosciences, Inc. 08-170
How it was run: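 Readout pairs a europium cryptate-labelled anti-phosphotyrosine antibody with XL665-streptavidin, measured by time-resolved fluorescence. IC50 derived from percent inhibition against untreated controls.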

[1] = biotinylated peptide phosphorylation

T2 sequence (P12931 whole entry): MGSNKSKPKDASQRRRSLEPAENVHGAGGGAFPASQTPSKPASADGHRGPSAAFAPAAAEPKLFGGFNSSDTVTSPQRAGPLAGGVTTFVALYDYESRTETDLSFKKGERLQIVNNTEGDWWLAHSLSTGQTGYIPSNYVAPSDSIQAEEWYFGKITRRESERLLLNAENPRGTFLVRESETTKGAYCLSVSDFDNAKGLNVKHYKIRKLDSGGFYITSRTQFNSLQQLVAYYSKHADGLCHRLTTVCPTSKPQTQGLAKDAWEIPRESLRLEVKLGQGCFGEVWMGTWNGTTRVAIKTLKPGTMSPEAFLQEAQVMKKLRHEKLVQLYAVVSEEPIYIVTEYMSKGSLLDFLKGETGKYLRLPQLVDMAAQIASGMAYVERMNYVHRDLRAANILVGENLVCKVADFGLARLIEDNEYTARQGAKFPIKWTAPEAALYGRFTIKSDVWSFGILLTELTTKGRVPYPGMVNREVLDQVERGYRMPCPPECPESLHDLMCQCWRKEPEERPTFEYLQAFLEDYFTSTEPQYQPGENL
T3 sequence (P06239 whole entry): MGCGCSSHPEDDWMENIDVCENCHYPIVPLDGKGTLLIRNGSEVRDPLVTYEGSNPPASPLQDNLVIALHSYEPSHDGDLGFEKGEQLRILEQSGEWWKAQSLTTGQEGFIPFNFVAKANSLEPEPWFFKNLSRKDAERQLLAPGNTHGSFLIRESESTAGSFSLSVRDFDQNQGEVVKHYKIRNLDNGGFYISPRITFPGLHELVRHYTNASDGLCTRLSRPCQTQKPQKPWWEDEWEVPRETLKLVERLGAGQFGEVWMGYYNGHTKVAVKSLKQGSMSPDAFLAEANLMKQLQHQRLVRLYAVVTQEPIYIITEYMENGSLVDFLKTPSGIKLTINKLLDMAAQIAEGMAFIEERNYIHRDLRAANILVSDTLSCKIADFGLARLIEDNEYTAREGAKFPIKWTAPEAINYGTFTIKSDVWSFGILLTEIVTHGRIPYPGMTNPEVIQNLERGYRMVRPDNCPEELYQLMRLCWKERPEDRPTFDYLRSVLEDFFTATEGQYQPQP
T1 sequence (P07947 whole entry): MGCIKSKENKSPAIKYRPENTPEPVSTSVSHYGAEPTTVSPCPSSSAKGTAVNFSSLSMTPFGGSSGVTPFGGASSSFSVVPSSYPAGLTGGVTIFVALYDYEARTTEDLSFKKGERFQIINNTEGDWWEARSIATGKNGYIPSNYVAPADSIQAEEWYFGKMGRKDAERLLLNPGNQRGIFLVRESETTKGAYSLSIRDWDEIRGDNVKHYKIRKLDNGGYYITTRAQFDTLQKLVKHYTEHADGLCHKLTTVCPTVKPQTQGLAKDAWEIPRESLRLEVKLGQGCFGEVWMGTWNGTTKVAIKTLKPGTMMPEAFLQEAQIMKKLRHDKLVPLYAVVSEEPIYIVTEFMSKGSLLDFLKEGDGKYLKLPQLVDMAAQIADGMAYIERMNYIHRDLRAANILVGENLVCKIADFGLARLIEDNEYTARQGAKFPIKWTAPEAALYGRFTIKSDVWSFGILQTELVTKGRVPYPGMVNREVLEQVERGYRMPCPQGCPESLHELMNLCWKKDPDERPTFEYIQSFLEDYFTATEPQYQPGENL

| SMILES | IC50 (human Yes1 enzyme; [1]) | IC50 (human Src enzyme; [1]) | IC50 (human Lck enzyme; [1]) | IC50 (human Yes1 enzyme) | IC50 (human Src enzyme) | IC50 (human Lck enzyme) |
| --- | --- | --- | --- | --- | --- | --- |
| COc1cc2cc(C(=O)c3cnn(-c4c(C)cc(Oc5ccccc5)cc4F)c3N)[nH]c2cc1NS(C)(=O)=O [Example 4-1-007, N-[2-[5-amino-1-(2-fluoro-6-methyl-4-phenoxyphenyl)pyrazole-4-carbonyl]-5-methoxy-1H-indol-6-yl]methanesulfonamide] | 1.1 nM | 61 nM | 7.5 nM | – | – | – |
| Cc1cc(Oc2c(F)cccc2F)ncc1-n1ncc(C(=O)c2cc3cc(F)c(NS(=O)(=O)c4c(F)cc(F)cc4F)cc3[nH]2)c1N [Example 5-1-567, N-[2-[5-amino-1-[6-(2,6-difluorophenoxy)-4-methylpyridin-3-yl]pyrazole-4-carbonyl]-5-fluoro-1H-indol-6-yl]-2,4,6-trifluorobenzenesulfonamide] | 19 nM | 1200 nM | 610 nM | – | – | – |
| Cc1cc(Oc2cccc(F)c2F)ccc1-n1ncc(C(=O)c2cc3cc(F)c(NS(=O)(=O)CCCF)cc3[nH]2)c1N [Example 4-2-016, N-[2-[5-amino-1-[4-(2,3-difluorophenoxy)-2-methylphenyl]pyrazole-4-carbonyl]-5-fluoro-1H-indol-6-yl]-3-fluoropropane-1-sulfonamide] | 2.1 nM | 70 nM | 19 nM | – | – | – |
| Cc1cc(Oc2ccccc2F)ccc1-n1ncc(C(=O)c2cc3cc(OC(F)F)c(N4CCN(S(C)(=O)=O)CC4)cc3[nH]2)c1N [Example 4-23-002, [5-amino-1-[4-(2-fluorophenoxy)-2-methylphenyl]pyrazol-4-yl]-[5-(difluoromethoxy)-6-(4-methylsulfonylpiperazin-1-yl)-1H-indol-2-yl]methanone] | 1.6 nM | 44 nM | 20 nM | – | – | – |
| CS(=O)(=O)Nc1cc2[nH]c(C(=O)c3cnn(-c4c(F)cc(Oc5ccccc5F)cc4F)c3N)cc2cc1F [Example 5-1-022, N-[2-[5-amino-1-[2,6-difluoro-4-(2-fluorophenoxy)phenyl]pyrazole-4-carbonyl]-5-fluoro-1H-indol-6-yl]methanesulfonamide] | – | – | – | 2 nM | 62 nM | 10 nM |
| Cc1cc(Oc2c(F)cccc2F)ncc1-n1ncc(C(=O)c2cc3cc(F)c(N4C(=O)N[C@@H](CO)C4=O)cc3[nH]2)c1N [Example 5-1-407, (5S)-3-[2-[5-amino-1-[6-(2,6-difluorophenoxy)-4-methylpyridin-3-yl]pyrazole-4-carbonyl]-5-fluoro-1H-indol-6-yl]-5-(hydroxymethyl) imidazolidine-2,4-dione] | 2.2 nM | 74 nM | 3.5 nM | – | – | – |
| Cc1cnc(F)c(S(=O)(=O)Nc2cc3[nH]c(C(=O)c4cnn(-c5cnc(Oc6ccccc6F)cc5C)c4N)cc3cc2F)c1 [Example 5-1-524, N-[2-[5-amino-1-[6-(2-fluorophenoxy)-4-methylpyridin-3-yl]pyrazole-4-carbonyl]-5-fluoro-1H-indol-6-yl]-2-fluoro-5-methylpyridine-3-sulfonamide] | 5.7 nM | 580 nM | 210 nM | – | – | – |
| Cc1cc2[nH]c(C(=O)c3cnn(-c4c(C)cc(Oc5ccccc5F)cc4F)c3N)cc2cc1NS(C)(=O)=O [Example 4-2-051, N-[2-[5-amino-1-[2-fluoro-4-(2-fluorophenoxy)-6-methylphenyl]pyrazole-4-carbonyl]-6-methyl-1H-indol-5-yl]methanesulfonamide] | 0.59 nM | 3.8 nM | 1.2 nM | – | – | – |
| Cc1cc(Oc2ccccc2F)ccc1-n1ncc(C(=O)c2cc3cc(F)c(C4CCN(C(C)C)CC4)cc3[nH]2)c1N [Example 4-2-010, [5-amino-1-[4-(2-fluorophenoxy)-2-methylphenyl]pyrazol-4-yl]-[5-fluoro-6-(1-propan-2-ylpiperidin-4-yl)-1H-indol-2-yl]methanone] | 1.2 nM | 4.7 nM | 1.9 nM | – | – | – |
| Cc1cc2cc(C(=O)c3cnn(-c4c(C)cc(Oc5ccccc5F)cc4F)c3N)[nH]c2cc1NS(=O)(=O)N1CCOCC1 [Example 4-2-107, N-[2-[5-amino-1-[2-fluoro-4-(2-fluorophenoxy)-6-methylphenyl]pyrazole-4-carbonyl]-5-methyl-1H-indol-6-yl]morpholine-4-sulfonamide] | 2.4 nM | 250 nM | 89 nM | – | – | – |
| Cc1cc(Oc2ccccc2F)ccc1-n1ncc(C(=O)c2cc3cc(OCCN4C[C@@H]5C[C@H]4CN5S(C)(=O)=O)c(NS(C)(=O)=O)cc3[nH]2)c1N [Example 4-24-038, N-[2-[5-amino-1-[4-(2-fluorophenoxy)-2-methylphenyl]pyrazole-4-carbonyl]-5-[2-[(1S,4S)-2-methylsulfonyl-2,5-diazabicyclo[2.2.1]heptan-5-yl]ethoxy]-1H-indol-6-yl]methanesulfonamide] | 0.55 nM | 6.9 nM | 2.9 nM | – | – | – |
| Cc1cc(Oc2ccccc2F)ccc1-n1ncc(C(=O)c2cc3cc(OC(F)F)c(-n4c(C)cc(=O)[nH]c4=O)cc3[nH]2)c1N [Example 4-23-031, 1-[2-[5-amino-1-[4-(2-fluorophenoxy)-2-methylphenyl]pyrazole-4-carbonyl]-5-(difluoromethoxy)-1H-indol-6-yl]-6-methylpyrimidine-2,4-dione] | 1.5 nM | 14 nM | 5.2 nM | – | – | – |
| Cc1cc(Oc2ccccc2F)ccc1-n1ncc(C(=O)c2cc3cc(OC(F)F)c(NS(C)(=O)=O)cc3[nH]2)c1N [Example 4-24-002, N-[2-[5-amino-1-[4-(2-fluorophenoxy)-2-methylphenyl]pyrazole-4-carbonyl]-5-(difluoromethoxy)-1H-indol-6-yl]methanesulfonamide] | 1.6 nM | 35 nM | 10 nM | – | – | – |
| Cc1cc(Oc2cc(F)ccc2F)cc(F)c1-n1ncc(C(=O)c2cc3cc(F)c(NS(C)(=O)=O)cc3[nH]2)c1N [Example 4-7-007, N-[2-[5-amino-1-[4-(2,5-difluorophenoxy)-2-fluoro-6-methylphenyl]pyrazole-4-carbonyl]-5-fluoro-1H-indol-6-yl]methanesulfonamide] | 2 nM | 190 nM | 41 nM | – | – | – |
| Cc1cc(-n2ncc(C(=O)c3cc4cc(OC(F)F)c(N5CCC(N6CCOCC6)CC5)cc4[nH]3)c2N)ccc1Oc1ccccc1F [Example 5-1-181, [5-amino-1-[4-(2-fluorophenoxy)-3-methylphenyl]pyrazol-4-yl]-[5-(difluoromethoxy)-6-(4-morpholin-4-ylpiperidin-1-yl)-1H-indol-2-yl]methanone] | – | – | – | 1.4 nM | 390 nM | 41 nM |
| Cc1cc2cc(C(=O)c3cnn(-c4cnc(Oc5c(F)cccc5F)cc4C)c3N)[nH]c2cc1N1C(=O)NC2(CCN(C3COC3)C2)C1=O (stereo not drawn) [Example 5-1-362, 3-[2-[5-amino-1-[6-(2,6-difluorophenoxy)-4-methylpyridin-3-yl]pyrazole-4-carbonyl]-5-methyl-1H-indol-6-yl]-7-(oxetan-3-yl)-1,3,7-triazaspiro[4.4]nonane-2,4-dione] | – | – | – | 2 nM | 29 nM | 6.5 nM |
| COc1cccc(S(=O)(=O)Nc2cc3[nH]c(C(=O)c4cnn(-c5cnc(Oc6ccccc6F)cc5C)c4N)cc3cc2OCC(F)F)c1 [Example 5-1-419, N-[2-[5-amino-1-[6-(2-fluorophenoxy)-4-methylpyridin-3-yl]pyrazole-4-carbonyl]-5-(2,2-difluoroethoxy)-1H-indol-6-yl]-3-methoxybenzenesulfonamide] | 5.6 nM | 790 nM | 220 nM | – | – | – |
